Patent publication US8183236B2, “Compounds with HIV-1 integrase inhibitory activity and use thereof as anti-HIV/AIDS therapeutics” (University of Southern California, priority 2007, dated 2012)

These compounds were tested against T1, HIV-1 integrase (wild-type IN) (Human immunodeficiency virus type 1 group M subtype B, UniProt P12497) (assay: HIV-1 integrase strand transfer assay (32P-labeled 21-mer, gel)). Details: unit inferred; read-out: IN inhibition activity Strand transfer.
Format: biochemical
Description: (§1) The oligonucleotides 21 top, 5′-[…]-3′ (SEQ ID NO:1) and 21 bot, 5′-[…]-3′ (SEQ ID NO:2) were purchased from Norris Cancer Center Core Facility (University of Southern California) and purified by UV shadowing on polyacrylamide gel. To analyze the extent of 3′-processing and strand transfer using 5′-end labeled substrates, 21 top was 5′-end labeled using T4 polynucleotide kinase (Epicentre, Madison, Wis.) and γ [^32P]-ATP (Amersham Biosciences or ICN). The kinase was heat-inactivated and 21 bot was added in 1.5-molar excess. The mixture was heated at 95° C., allowed to cool slowly to room temperature, and run through a spin 25 mini-column (USA Scientific) to separate annealed double-stranded oligonucleotide from unincorporated material.
(§2) To determine the extent of 3′-processing and strand transfer, wild-type IN was preincubated at a final concentration of 200 nM with the inhibitor in reaction buffer (50 mM NaCl, 1 mM HEPES, pH 7.5, 50 μM EDTA, 50 μM dithiothreitol, 10% glycerol (w/v), 7.5 mM MnCl2, 0.1 mg/ml bovine serum albumin, 10 mM 2-mercaptoethanol, 10% dimethyl sulfoxide, and 25 mM MOPS, pH 7.2) at 30° C. for 30 min. Then, 20 nM of the 5′-end ^32P-labeled linear oligonucleotide substrate was added, and incubation was continued for an additional one hour. Reactions were quenched by the addition of an equal volume (16 μl) of loading dye (98% deionized formamide, 10 mM EDTA, 0.025% xylene cyanol and 0.025% bromophenol blue). An aliquot (5 μl) was electrophoresed on a denaturing 20% polyacrylamide gel (0.09 M tris-borate pH 8.3, 2 mM EDTA, 20% acrylamide, 8M urea).
(§3) Gels were dried, exposed in a PhosphorImager cassette, and analyzed using a Typhoon 8610 Variable Mode Imager (Amersham Biosciences) and quantitated using ImageQuant 5.2. Percent inhibition (% I) was calculated using the following equation: %I=100×[1−(D−C)/(N−C)]
(§4) where C, N, and D are the fractions of 21-mer substrate converted to 19-mer (3′-processing product) or strand transfer products for DNA alone, DNA plus IN, and IN plus drug, respectively. The IC50 values were determined by plotting the logarithm of drug concentration versus percent inhibition to obtain concentration that produced 50% inhibition. […]

Going from `Cc1ccc(C(=O)C2=C(O)C(=O)N(c3nccs3)C2c2ccc(Cl)cc2)cc1` (stereo not shown) [Compound M28A6] to `Cc1ccc(C(=O)C2=C(O)C(=O)N(c3nccs3)C2c2ccc(F)cc2)cc1` (stereo not shown) [Compound M28A7], the IC50 rises from 39 ± 3 µM to 78 ± 10 µM (2-fold). The first is the more potent here.

First: O=C(C1=C(O)C(=O)N(c2nc3ccccc3s2)C1c1ccc2c(c1)OCO2)c1ccccc1 (stereo not shown) [Compound M28A8]
Second: O=C(C1=C(O)C(=O)N(c2nc3ccccc3s2)C1c1cccnc1)c1ccc(Cl)cc1 (stereo not shown) [Compound M28A21]
The IC50 of the first is 4.3-fold lower: 21 ± 10 µM for the first, 90 ± 10 µM for the second. The first is the more potent here.

`CCOC(=O)c1sc(N2C(=O)C(O)=C(C(=O)c3ccccc3)C2c2ccc(F)cc2)nc1C` (stereo not shown) [Compound M28A10] and `CCOC(=O)c1sc(N2C(=O)C(O)=C(C(=O)c3ccc(C)cc3)C2c2ccc(F)cc2)nc1C` (stereo not shown) [Compound M28A18] are within error of each other in IC50: 21 ± 4 µM for the first, 33 ± 25 µM for the second.

`CCOc1ccc(C(=O)C2=C(O)C(=O)N(c3nccs3)C2c2ccc(OC)cc2)cc1` (stereo not shown) [Compound M28A11] and `O=C(C1=C(O)C(=O)N(c2nc3ccccc3s2)C1c1ccccn1)c1ccc(Cl)cc1` (stereo not shown) [Compound M28A22] are within error of each other in IC50: 90 ± 17 µM for the first, 83 ± 12 µM for the second.

`N=C1S/C(=C/c2ccc(-c3ccccc3C(=O)O)o2)C(=O)N1c1ccc2c(c1)OCO2` [Compound T36] gave an IC50 of 6.5 ± 1 µM.

Same assay, conditions: wild-type IN 200 nM, 7.5 mM MnCl2; read-out: Inhibition of IN Catalytic Activities IC50 (μM) Strand Transfer

First: O=C(Cc1ccccc1)Nc1cc(C(=O)O)c(NC(=O)Cc2ccccc2)cc1C(=O)O [Compound X7]
Second: O=C(O)c1cc(NC(=O)c2cccc3ccccc23)c(C(=O)O)cc1NC(=O)c1cccc2ccccc12 [Compound X8]
The IC50 of the first is 3-fold lower: 7 µM for the first, 21 µM for the second.

`COc1ccc(C=C2SC(=S)N(CCC(=O)Nc3cccc(C(=O)O)c3)C2=O)cc1` [Compound X26] and `CCOc1ccc(C=C2SC(=S)N(CCC(=O)Nc3cccc(C(=O)O)c3)C2=O)cc1` [Compound X95] cannot be ordered by IC50: over 100 µM for the first, over 100 µM for the second.

First: CCOC(=O)N1CCN(C(=O)CCN2C(=O)/C(=C/c3ccc(OC)c(OC)c3)SC2=S)CC1 [Compound X90]
Second: COc1cc(C=C2SC(=S)N(CC(=O)Nc3cc(Cl)ccc3O)C2=O)cc(OC)c1OC [Compound X171]
The IC50 of the first is higher: over 100 µM for the first, 17 ± 2 µM for the second. The second is the more potent here.

`CCc1ccc(C=C2SC(=S)N(CC(=O)Nc3cccc(C(=O)O)c3)C2=O)cc1` [Compound X91] and `Cc1ccc(C=C2SC(=S)N(CC(=O)Nc3cccc(C(=O)O)c3)C2=O)cc1` [Compound X97] cannot be ordered by IC50: over 100 µM for the first, over 100 µM for the second.

`O=C(CCN1C(=O)C(=Cc2ccc3c(c2)OCO3)SC1=S)Nc1ccc(O)c(C(=O)O)c1` [Compound X94] and `CCc1ccc(C=C2SC(=S)N(CCC(=O)Nc3ccc(O)c(C(=O)O)c3)C2=O)cc1` [Compound X170] are within error of each other in IC50: 17 ± 11 µM for the first, 11 ± 5 µM for the second.

`O=C(CN1C(=O)/C(=C2\SC(=S)N(CC(=O)Nc3ccc(C(=O)O)cc3)C2=O)SC1=S)Nc1ccc(C(=O)O)cc1` [Compound X102] and `O=C(CN1C(=O)/C(=C2\SC(=S)N(CC(=O)Nc3ccc(O)cc3)C2=O)SC1=S)Nc1ccc(O)cc1` [Compound X103] are within 1.5-fold of each other in IC50: 75 µM for the first, 69 µM for the second.

Compared with `COc1cc(C(=O)Nc2ccc(O)c(C(=O)O)c2)cc(OC)c1OC` [Compound X108], `O=C(CCCN1C(=O)C(=Cc2cccs2)SC1=S)Nc1ccc(O)c(C(=O)O)c1` [Compound X169] is lower in IC50: over 100 µM for the first, 35 ± 16 µM for the second. The second is the more potent here.

`Cc1ccc(/C=C2\SC(=S)N(CCC(=O)Nc3ccc(S(=O)(=O)Nc4nccs4)cc3)C2=O)cc1` [Compound X124] and `O=C(O)c1ccc(S(=O)(=O)c2ccc3c(c2)C(=O)N(c2ccc(O)c(C(=O)O)c2)C3=O)cc1` [Compound X125] are the same in IC50: 44 ± 16 µM for the first, 44 ± 4 µM for the second.

Compound `Cc1ccc2[nH]c(/C(C#N)=C\c3ccc(-c4ccc(C(=O)O)c(O)c4)o3)nc2c1` [Compound X132] has an IC50 of 8 ± 1 µM.

These compounds were tested against T1, HIV-1 integrase (wild-type IN) (assay: HIV-1 integrase 3′-processing assay (32P-labeled 21-mer, gel)). Details: unit inferred; read-out: IN inhibition activity 3′-processing.
Format: biochemical
Description: as §1, §2, §3, §4

Compared with `Cc1ccc(C(=O)C2=C(O)C(=O)N(c3nccs3)C2c2ccc(Cl)cc2)cc1` (stereo not shown) [Compound M28A6], `Cc1ccc(C(=O)C2=C(O)C(=O)N(c3nccs3)C2c2ccc(F)cc2)cc1` (stereo not shown) [Compound M28A7] is higher in IC50: 56 ± 10 µM for the first, over 100 µM for the second. The first is the more potent here.

Compared with `O=C(C1=C(O)C(=O)N(c2nc3ccccc3s2)C1c1ccc2c(c1)OCO2)c1ccccc1` (stereo not shown) [Compound M28A8], `O=C(C1=C(O)C(=O)N(c2nc3ccccc3s2)C1c1cccnc1)c1ccc(Cl)cc1` (stereo not shown) [Compound M28A21] is higher in IC50: 57 ± 10 µM for the first, over 100 µM for the second.

Compared with `CCOC(=O)c1sc(N2C(=O)C(O)=C(C(=O)c3ccccc3)C2c2ccc(F)cc2)nc1C` (stereo not shown) [Compound M28A10], `CCOC(=O)c1sc(N2C(=O)C(O)=C(C(=O)c3ccc(C)cc3)C2c2ccc(F)cc2)nc1C` (stereo not shown) [Compound M28A18] is higher in IC50: 44 ± 4 µM for the first, over 100 µM for the second.

`CCOc1ccc(C(=O)C2=C(O)C(=O)N(c3nccs3)C2c2ccc(OC)cc2)cc1` (stereo not shown) [Compound M28A11] and `O=C(C1=C(O)C(=O)N(c2nc3ccccc3s2)C1c1ccccn1)c1ccc(Cl)cc1` (stereo not shown) [Compound M28A22] cannot be ordered by IC50: over 100 µM for the first, over 100 µM for the second.

With `N=C1S/C(=C/c2ccc(-c3ccccc3C(=O)O)o2)C(=O)N1c1ccc2c(c1)OCO2` [Compound T36] the IC50 was 12 ± 6 µM.

Same assay, conditions: wild-type IN 200 nM, 7.5 mM MnCl2; read-out: Inhibition of IN Catalytic Activities IC50 (μM) 3′-processing

Compared with `O=C(Cc1ccccc1)Nc1cc(C(=O)O)c(NC(=O)Cc2ccccc2)cc1C(=O)O` [Compound X7], `O=C(O)c1cc(NC(=O)c2cccc3ccccc23)c(C(=O)O)cc1NC(=O)c1cccc2ccccc12` [Compound X8] is 3.1-fold higher in IC50: 9 µM for the first, 28 µM for the second.

Compared with `COc1ccc(C=C2SC(=S)N(CCC(=O)Nc3cccc(C(=O)O)c3)C2=O)cc1` [Compound X26], `CCOc1ccc(C=C2SC(=S)N(CCC(=O)Nc3cccc(C(=O)O)c3)C2=O)cc1` [Compound X95] is lower in IC50: over 100 µM for the first, 93 ± 12 µM for the second.

Compared with `CCOC(=O)N1CCN(C(=O)CCN2C(=O)/C(=C/c3ccc(OC)c(OC)c3)SC2=S)CC1` [Compound X90], `COc1cc(C=C2SC(=S)N(CC(=O)Nc3cc(Cl)ccc3O)C2=O)cc(OC)c1OC` [Compound X171] is lower in IC50: over 100 µM for the first, 32 ± 11 µM for the second. The second is the more potent here.

Compared with `CCc1ccc(C=C2SC(=S)N(CC(=O)Nc3cccc(C(=O)O)c3)C2=O)cc1` [Compound X91], `Cc1ccc(C=C2SC(=S)N(CC(=O)Nc3cccc(C(=O)O)c3)C2=O)cc1` [Compound X97] is lower in IC50: over 100 µM for the first, 98 ± 4 µM for the second.

`O=C(CCN1C(=O)C(=Cc2ccc3c(c2)OCO3)SC1=S)Nc1ccc(O)c(C(=O)O)c1` [Compound X94] and `CCc1ccc(C=C2SC(=S)N(CCC(=O)Nc3ccc(O)c(C(=O)O)c3)C2=O)cc1` [Compound X170] are the same in IC50: 15 ± 10 µM for the first, 15 ± 3 µM for the second.

`O=C(CN1C(=O)/C(=C2\SC(=S)N(CC(=O)Nc3ccc(C(=O)O)cc3)C2=O)SC1=S)Nc1ccc(C(=O)O)cc1` [Compound X102] and `O=C(CN1C(=O)/C(=C2\SC(=S)N(CC(=O)Nc3ccc(O)cc3)C2=O)SC1=S)Nc1ccc(O)cc1` [Compound X103] are the same in IC50: 59 ± 31 µM for the first, 59 ± 37 µM for the second.

First: COc1cc(C(=O)Nc2ccc(O)c(C(=O)O)c2)cc(OC)c1OC [Compound X108]
Second: O=C(CCCN1C(=O)C(=Cc2cccs2)SC1=S)Nc1ccc(O)c(C(=O)O)c1 [Compound X169]
The IC50 of the first is higher: over 100 µM for the first, 44 ± 20 µM for the second.

`Cc1ccc(/C=C2\SC(=S)N(CCC(=O)Nc3ccc(S(=O)(=O)Nc4nccs4)cc3)C2=O)cc1` [Compound X124] and `O=C(O)c1ccc(S(=O)(=O)c2ccc3c(c2)C(=O)N(c2ccc(O)c(C(=O)O)c2)C3=O)cc1` [Compound X125] are within error of each other in IC50: 83 ± 21 µM for the first, 66 ± 6 µM for the second.

In the case of `Cc1ccc2[nH]c(/C(C#N)=C\c3ccc(-c4ccc(C(=O)O)c(O)c4)o3)nc2c1` [Compound X132], the IC50 is reported as 16 ± 5 µM.
